Assay results reported in patent publication US10167262B2, “Herbicidal substituted 3-arylpyrazoles” (FMC CORPORATION, priority 2014, dated 2019).
Read-outs that look alike come from different tables or passages of the source.

Experiments:
Type in all cases: in vivo
wild oat (Avena fatua) = test: Test C postemergence greenhouse test, plant response rating 0-100; conditions: Avena fatua, post-emergence
Summary of the method: (§1)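 Each weed species was grown in potting medium and sprayed after emergence, when 2–18 cm tall. Ratings, made by eye relative to control pots, were recorded 13–15 days later using a scale where 0 is no effect.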

kochia (Kochia scoparia) = test: as above; conditions: Bassia scoparia, post-emergence
Summary of the method: as §1

[1] = system: chickweed (common chickweed, Stellaria media); test: as above; conditions: Stellaria media, post-emergence
Summary of the method: as §1

[2] = system: Italian ryegrass (Lolium multiflorum); test: Test C pre-/postemergence greenhouse test, plant response rating 0-100; conditions: Lolium multiflorum; for pest or weed control at 62 g/ha: 62 g ai/ha; for pest or weed control at 125 g/ha: 125 g ai/ha; for pest or weed control at 250 g/ha: 250 g ai/ha; for pest or weed control at 500 g/ha: 500 g ai/ha
Summary of the method: (§2)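 Plants were treated either at seeding (soil of loam and sand) or as 2–18 cm seedlings in a sphagnum peat mix, using test chemicals in a surfactant-containing non-phytotoxic solvent. Visual assessment relative to controls followed 13–15 days later.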

soybean (Glycine max) = test: as above; conditions: Glycine max; for plant injury at 62 g/ha: 62 g ai/ha; for plant injury at 125 g/ha: 125 g ai/ha; for plant injury at 250 g/ha: 250 g ai/ha; for plant injury at 500 g/ha: 500 g ai/ha
Summary of the method: as §2

[3] = system: giant foxtail (Setaria faberii); test: as above; conditions: Setaria faberi; for pest or weed control at 62 g/ha: 62 g ai/ha; for pest or weed control at 125 g/ha: 125 g ai/ha; for pest or weed control at 250 g/ha: 250 g ai/ha; for pest or weed control at 500 g/ha: 500 g ai/ha
Summary of the method: as §2

[4] = system: velvetleaf (Abutilon theophrasti); test: Test A pre-/postemergence greenhouse herbicide test, visual injury rating 0-100; conditions: Abutilon theophrasti, 240 h, 1000 g ai/ha, read-out: Plant response rating (0 to 100 scale), Velvetleaf
Summary of the method: (§3)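 Planting in a loam and sand mixture preceded a directed preemergence soil spray; postemergence spray was applied concurrently to one- to two-leaf plants. After roughly 10 days under glass, injury is scored visually against untreated controls, 0–100.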

corn (Zea mays) = test: as above; conditions: Zea mays, 240 h, 1000 g ai/ha, read-out: Plant response rating (0 to 100 scale), Corn
Summary of the method: as §3

[5] = system: large (Lg) crabgrass (Digitaria sanguinalis); test: as above; conditions: Digitaria sanguinalis, 240 h, 1000 g ai/ha, read-out: Plant response rating (0 to 100 scale), Crabgrass, Large
Summary of the method: as §3

[6] = system: wheat (Triticum aestivum); test: as above; conditions: Triticum aestivum, 240 h, 1000 g ai/ha, read-out: Plant response rating (0 to 100 scale), Wheat
Summary of the method: as §3

[7] = system: giant foxtail (Setaria faberii); test: as above; conditions: Setaria faberi, 240 h, 1000 g ai/ha, read-out: Plant response rating (0 to 100 scale), Foxtail, Giant
Summary of the method: as §3

[8] = system: morningglory (Ipomoea spp.); test: as above; conditions: Ipomoea, pre-emergence, 240 h; Preemergence, 1000 g ai/ha; read-out: Plant response rating (0 to 100 scale), Morningglory
Summary of the method: as §3

[9] = system: pigweed (Amaranthus retroflexus); test: as above; conditions: Amaranthus retroflexus, 240 h, 1000 g ai/ha, read-out: Plant response rating (0 to 100 scale), Pigweed
Summary of the method: as §3

[10] = system: barnyardgrass (Echinochloa crus-galli); test: as above; conditions: Echinochloa crus-galli, 240 h, 1000 g ai/ha, read-out: Plant response rating (0 to 100 scale), Barnyardgrass
Summary of the method: as §3

[11] = post-emergence, Postemergence, read-out: Plant response rating (0 to 100), Ryegrass, Italian
[12] = post-emergence, Postemergence, scale 0 to 100
[13] = pre-emergence, Preemergence, read-out: Plant response rating, Ryegrass, Italian
[14] = post-emergence, Postemergence, read-out: Plant response rating (0 to 100), Soybean
[15] = pre-emergence, Preemergence, read-out: Plant response rating, Soybean
[16] = post-emergence, Postemergence, read-out: Plant response rating (0 to 100), Foxtail, Giant
[17] = pre-emergence, Preemergence, read-out: Plant response rating, Foxtail, Giant

C#CCn1cc(C(=O)c2ccccc2)c(-c2cc(Cl)cc(Cl)c2)n1 [Compound 39, [3-(3,5-dichlorophenyl)-1-(2-propyn-1-yl)-1H-pyrazol-4-yl]phenylmethanone]
pest or weed control at 62 g/ha (wild oat (Avena fatua); 62 g ai/ha): 0% | pest or weed control at 125 g/ha (wild oat (Avena fatua); 125 g ai/ha): 0% | pest or weed control at 250 g/ha (wild oat (Avena fatua); 250 g ai/ha, scale 0 to 100): 0% | pest or weed control at 500 g/ha (wild oat (Avena fatua); 500 g ai/ha, scale 0 to 100): 5% | pest or weed control at 62 g/ha (kochia (Kochia scoparia); 62 g ai/ha): 15% | pest or weed control at 125 g/ha (kochia (Kochia scoparia); 125 g ai/ha): 40% | pest or weed control at 250 g/ha (kochia (Kochia scoparia); 250 g ai/ha, scale 0 to 100): 55% | pest or weed control at 500 g/ha (kochia (Kochia scoparia); 500 g ai/ha, scale 0 to 100): 80% | pest or weed control at 62 g/ha ([1]; 62 g ai/ha): 98% | pest or weed control at 125 g/ha ([1]; 125 g ai/ha): 98% | pest or weed control at 250 g/ha ([1]; 250 g ai/ha, scale 0 to 100): 100% | pest or weed control at 500 g/ha ([1]; 500 g ai/ha, scale 0 to 100): 100% | pest or weed control at 62 g/ha [2, 11]: 0% | pest or weed control at 125 g/ha [2, 11]: 0% | pest or weed control at 250 g/ha [2, 12]: 0% | pest or weed control at 500 g/ha [2, 12]: 0% | pest or weed control at 62 g/ha [2, 13]: 0% | pest or weed control at 125 g/ha [2, 13]: 0% | pest or weed control at 250 g/ha ([2]; pre-emergence, Preemergence): 0% | pest or weed control at 500 g/ha ([2]; pre-emergence, Preemergence): 0% | plant injury at 62 g/ha (soybean (Glycine max); [14]): 0% | plant injury at 125 g/ha (soybean (Glycine max); [14]): 0% | plant injury at 250 g/ha (soybean (Glycine max); [12]): 0% | plant injury at 500 g/ha (soybean (Glycine max); [12]): 0% | plant injury at 62 g/ha (soybean (Glycine max); [15]): 0% | plant injury at 125 g/ha (soybean (Glycine max); [15]): 0% | plant injury at 250 g/ha (soybean (Glycine max); pre-emergence, Preemergence): 0% | plant injury at 500 g/ha (soybean (Glycine max); pre-emergence, Preemergence): 0% | pest or weed control at 62 g/ha [3, 16]: 0% | pest or weed control at 125 g/ha [3, 16]: 0% | pest or weed control at 250 g/ha [3, 12]: 0% | pest or weed control at 500 g/ha [3, 12]: 0% | pest or weed control at 62 g/ha [3, 17]: 0% | pest or weed control at 125 g/ha [3, 17]: 0% | pest or weed control at 250 g/ha ([3]; pre-emergence, Preemergence): 0% | pest or weed control at 500 g/ha ([3]; pre-emergence, Preemergence): 0% | pest or weed control at 1000 g/ha ([4]; post-emergence, Postemergence): 100% | pest or weed control at 1000 g/ha ([4]; pre-emergence, Preemergence): 100% | plant injury at 1000 g/ha (corn (Zea mays); post-emergence, Postemergence): 0% | plant injury at 1000 g/ha (corn (Zea mays); pre-emergence, Preemergence): 0% | pest or weed control at 1000 g/ha ([5]; post-emergence, Postemergence): 0% | pest or weed control at 1000 g/ha ([5]; pre-emergence, Preemergence): 0% | plant injury at 1000 g/ha ([6]; post-emergence, Postemergence): 0% | plant injury at 1000 g/ha ([6]; pre-emergence, Preemergence): 0% | pest or weed control at 1000 g/ha ([7]; post-emergence, Postemergence): 0% | pest or weed control at 1000 g/ha ([7]; pre-emergence, Preemergence): 0% | pest or weed control at 1000 g/ha [8]: 0% | pest or weed control at 1000 g/ha ([9]; post-emergence, Postemergence): 100% | pest or weed control at 1000 g/ha ([9]; pre-emergence, Preemergence): 100% | pest or weed control at 1000 g/ha ([10]; post-emergence, Postemergence): 0% | pest or weed control at 1000 g/ha ([10]; pre-emergence, Preemergence): 0%
